{
  "source": "ChEMBL document CHEMBL3751840",
  "about": "“Peptide-based inhibitors of protein-protein interactions” (Bioorg Med Chem Lett, 2016)",
  "key": {"Estrogen receptor": {"target": "T1, Estrogen receptor (Homo sapiens, UniProt P03372)", "T1 sequence (P03372 whole entry)": "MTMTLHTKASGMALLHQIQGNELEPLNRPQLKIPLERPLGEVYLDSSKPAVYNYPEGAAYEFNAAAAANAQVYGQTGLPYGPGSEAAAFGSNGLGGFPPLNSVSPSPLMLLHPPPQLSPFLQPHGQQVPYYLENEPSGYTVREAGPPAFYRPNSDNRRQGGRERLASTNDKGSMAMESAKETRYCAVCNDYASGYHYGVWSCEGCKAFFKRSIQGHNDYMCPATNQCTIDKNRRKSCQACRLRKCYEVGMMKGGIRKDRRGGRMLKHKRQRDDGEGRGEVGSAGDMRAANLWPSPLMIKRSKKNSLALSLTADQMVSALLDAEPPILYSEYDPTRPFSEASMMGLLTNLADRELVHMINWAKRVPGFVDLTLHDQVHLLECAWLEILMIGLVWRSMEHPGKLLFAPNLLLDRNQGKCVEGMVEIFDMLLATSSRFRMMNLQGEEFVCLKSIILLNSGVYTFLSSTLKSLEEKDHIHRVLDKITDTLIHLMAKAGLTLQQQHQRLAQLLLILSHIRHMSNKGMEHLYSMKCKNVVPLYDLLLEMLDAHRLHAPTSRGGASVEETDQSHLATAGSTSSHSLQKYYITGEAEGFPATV", "experiment": "Binding affinity to ERalpha (unknown origin)"}, "[1]": {"target": "Tumour suppressor p53/oncoprotein Mdm2 (Homo sapiens, UniProt P04637+Q00987)", "sequence (P04637 whole entry)": "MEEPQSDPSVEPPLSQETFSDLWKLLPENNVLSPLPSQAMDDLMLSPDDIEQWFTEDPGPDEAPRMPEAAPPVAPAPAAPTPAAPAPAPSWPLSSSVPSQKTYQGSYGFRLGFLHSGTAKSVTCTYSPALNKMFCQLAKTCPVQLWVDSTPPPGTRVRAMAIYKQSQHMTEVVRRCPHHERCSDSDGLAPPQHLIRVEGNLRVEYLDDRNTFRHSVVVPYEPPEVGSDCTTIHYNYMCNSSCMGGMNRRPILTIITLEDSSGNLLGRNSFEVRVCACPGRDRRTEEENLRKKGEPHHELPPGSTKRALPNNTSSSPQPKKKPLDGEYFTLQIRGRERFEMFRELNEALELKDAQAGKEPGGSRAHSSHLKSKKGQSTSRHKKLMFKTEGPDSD", "sequence (Q00987 whole entry)": "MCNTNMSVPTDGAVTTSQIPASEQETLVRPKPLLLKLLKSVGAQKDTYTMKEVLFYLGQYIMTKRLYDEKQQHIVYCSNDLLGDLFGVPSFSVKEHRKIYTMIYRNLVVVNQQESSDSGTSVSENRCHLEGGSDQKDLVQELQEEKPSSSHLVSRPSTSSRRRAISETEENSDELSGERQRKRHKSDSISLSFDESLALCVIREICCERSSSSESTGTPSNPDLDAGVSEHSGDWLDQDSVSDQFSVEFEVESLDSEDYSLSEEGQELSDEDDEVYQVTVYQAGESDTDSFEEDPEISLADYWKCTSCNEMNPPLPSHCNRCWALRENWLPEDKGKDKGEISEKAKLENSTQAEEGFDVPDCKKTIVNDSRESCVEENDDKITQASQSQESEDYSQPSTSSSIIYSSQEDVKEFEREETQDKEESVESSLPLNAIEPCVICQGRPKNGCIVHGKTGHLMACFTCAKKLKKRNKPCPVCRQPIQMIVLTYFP", "experiment": "Inhibition of p53-HDM2 (unknown origin) interaction", "type": "protein assay"}, "[2]": {"target": "Menin/Histone-lysine N-methyltransferase MLL (Homo sapiens, UniProt O00255+Q03164)", "experiment": "Inhibition of menin-MLL (unknown origin) interaction", "type": "protein assay"}, "Bcl-2-like protein 1": {"target": "Bcl-2-like protein 1 (Homo sapiens, UniProt Q07817)", "sequence (Q07817 whole entry, the tested form may be a part)": "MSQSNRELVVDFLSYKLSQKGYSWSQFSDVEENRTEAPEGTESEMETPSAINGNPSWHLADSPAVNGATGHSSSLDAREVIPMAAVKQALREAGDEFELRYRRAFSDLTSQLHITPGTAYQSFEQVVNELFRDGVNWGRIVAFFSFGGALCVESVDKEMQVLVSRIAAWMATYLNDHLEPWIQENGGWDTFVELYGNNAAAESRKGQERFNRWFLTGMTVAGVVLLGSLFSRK", "experiment": "Inhibition of BCL-xL-BH3 domain (unknown origin) interaction"}, "[3]": {"target": "E3 ubiquitin-protein ligase Mdm2 (Homo sapiens, UniProt Q00987)", "sequence (Q00987 whole entry)": "as the sequence (Q00987 whole entry) above", "experiment": "Binding affinity to MDM2 (unknown origin)"}},
  "note": "Starred links: 1 amine or outer side, 2 acyl side, 3 side chain; linkers in the order of their positions; H or OH if unused. Positions of bridges follow the written chain, without caps; N, C: chain ends. Non-standard residues stand in square brackets, D forms with d. Residues, ends and D or L forms follow the SMILES beside them. X1 = O=C([C@H]1CNC[C@@H]1N[*:1])[*:2]; X2 = O=C([C@H]1CCC[C@@H]1N[*:1])[*:2]",
  "data": [
    {"smiles": "CC(=O)N[C@@H](Cc1cnc[nH]1)C(=O)N[C@@H](CCCCN)C(=O)N[C@@]1(C)CCCCCCCC[C@@](C)(C(=O)N[C@@H](CC(C)C)C(=O)N[C@@H](CCC(N)=O)C(=O)N[C@@H](CC(=O)O)C(=O)N[C@@H](CO)C(N)=O)NC(=O)[C@H](CCC(N)=O)NC(=O)[C@H](Cc2cnc[nH]2)NC(=O)[C@H](CC(C)C)NC1=O", "values": [
      {"measurement": "Kd", "setting": "Estrogen receptor", "value": 352, "unit": "nM"}
    ]},
    {"smiles": "CC(C)CCN(CC(=O)N(CCS(N)(=O)=O)CC(=O)N(CC(N)=O)Cc1ccc([N+](=O)[O-])cc1)C(=O)CN(CCCP(=O)(O)O)C(=O)CN(Cc1ccc([N+](=O)[O-])cc1)C(=O)CN(CCc1c[nH]c2ccccc12)C(=O)CN(CCCCP(=O)(O)O)C(=O)CN(Cc1ccc([N+](=O)[O-])cc1)C(=O)CN(CCc1ccccc1)C(=O)CNCc1ccc([N+](=O)[O-])cc1", "values": [
      {"measurement": "IC50", "setting": "[1]", "value": 6600, "unit": "nM"}
    ]},
    {"smiles": "CC(=O)N[C@@H](CCCNC(=N)N)C(=O)N[C@@H](Cc1c[nH]c2ccccc12)C(=O)NC1CCCCCCCNC(=O)[C@@H]2CCCN2C(=O)[C@H](CCCNC(=N)N)NC(=O)[C@H](C)NC(=O)[C@@H]2CCCN2C(=O)C(Cc2ccccc2)NC1=O", "note": "(single isomer, unassigned)", "values": [
      {"measurement": "Ki", "setting": "[2]", "value": 23.8, "unit": "nM"}
    ]},
    {"smiles": "CC(C)C[C@@H]1NC(=O)[C@H](Cc2c[nH]c3ccc(Cl)cc23)NC(=O)[C@H](CCC(=O)O)NC(=O)[C@H](Cc2ccccc2)NC(=O)[C@@H]2CCCN2C(=O)[C@H]2CCCN2C(=O)[C@H](Cc2ccccc2)NC(=O)[C@H](CCC(=O)O)NC(=O)[C@H](Cc2c[nH]c3ccccc23)NC(=O)[C@H](CC(=O)O)NC1=O", "values": [
      {"measurement": "IC50", "setting": "[1]", "value": 140, "unit": "nM"}
    ]},
    {"smiles": "CC(=O)N[C@H]1CNC[C@@H]1C(=O)N[C@@H](C)C(=O)N[C@H]1CCC[C@@H]1C(=O)N[C@@H](CCCNC(=N)N)C(=O)N[C@H]1CCC[C@@H]1C(=O)N[C@@H](CC(C)C)C(=O)N[C@H]1CCC[C@@H]1C(=O)N[C@@H](CCCCN)C(=O)N[C@@H](CC(C)C)C(=O)NCC(=O)N[C@@H](CC(=O)O)C(=O)N[C@@H](C)C(=O)N[C@@H](Cc1ccccc1)C(=O)N[C@@H](CC(N)=O)C(=O)N[C@@H](CCCNC(=N)N)C(N)=O", "note": "(Ac-[X1]A[X2]R[X2]L[X2]KLGDAFNR-NH2)", "values": [
      {"measurement": "Ki", "setting": "Bcl-2-like protein 1", "value": 2, "unit": "nM"}
    ]},
    {"smiles": "CC(C)C[C@H](NC(=O)[C@@H]1CSSC[C@H](N)C(=O)N[C@@H](CC(N)=O)C(=O)N[C@H]2CSSC[C@H](NC(=O)[C@H](CC(C)C)NC(=O)[C@H](Cc3ccccc3)NC(=O)[C@H]([C@@H](C)O)NC(=O)[C@H](CCC(=O)O)NC(=O)[C@@H]3CCCN3C(=O)[C@H](C)NC(=O)[C@H](CCCCN)NC2=O)C(=O)N[C@@H](Cc2ccc(O)cc2)C(=O)N[C@@H](Cc2c[nH]c3ccccc23)C(=O)N[C@@H](CCCNC(=N)N)C(=O)N1)C(=O)N[C@@H](CCC(N)=O)C(=O)N[C@@H](Cc1cnc[nH]1)C(N)=O", "note": "(H-CNCKAPETFLCYWRCLQH-NH2; disulfide 1-15, 3-11)", "values": [
      {"measurement": "Kd", "setting": "[3]", "value": 17700, "unit": "nM"}
    ]}
  ]
}
